Laboratory results: US9561201B2, “Therapeutic compounds” (Fibrotech Therapeutics Pty Ltd, priority 2006, dated 2017)

What was measured:
rat mesangial cell line [1] = assay: Effect on mesangial cell appearance (visual monitoring during proline assay); format: cell-based
Procedure: (§1) A well-characterized cloned rat mesangial cell line (gift of D Nikolic-Patterson) is cultured in DMEM with FBS, 100 U/mL penicillin, and 100 ug/mL streptomycin in a humidified 5% CO2 atmosphere at 37° C. Cells are plated into 24-well culture dishes in DMEM/10% FBS at low density and allowed to adhere overnight. Cells are used between passages 20 and 40. The subconfluent cells are starved overnight in DMEM/0.1% FBS containing 150 uM L-ascorbic acid, prior to 4 hours of pre-treatment with or without tranilast or the FT compounds, followed by the addition of 5 ng/mL rhTGF-β11 (R&D Systems) and 1 uCi/mL of L-(2,3,4,5-^3H)-proline. Control wells have the compounds but no TGF-β1 added. Cells are incubated for a further 44 hours during which time their appearance is visually monitored. The cells are then washed three times in ice-cold PBS, twice in ice cold 10% TCA and solubilized in 750 uL 1M NaOH for 45 minutes at 37° C. or overnight at 4° C. A 500 uL aliquot is neutralized with 500 uL 1M HCl and 10 mL scintillation fluid (Instagel Plus-Perkin-Elmer) added. Counts are performed on a beta counter.
Compounds in Bold have Minimal Effect on Cell Appearance and Viability

rat mesangial cell line [2] = assay: TGF-β stimulated 3H-proline incorporation in mesangial cells (Example 5); format: cell-based; conditions: for Collagen synthesis: inhibition ranked against tranilast (T) or FT11
Procedure: as §1
To normalize the proline incorporation counts to take into account the proliferative effects of TGF-β1, a BioRad protein assay is performed on a 100-150 uL aliquot of the remaining solubilized cells. The sample is neutralized with an equal amount of 1M HCl prior to the assay. The BSA standards used to construct the standard curve have the same amount of 1M NaOH and 1M HCl added as is present in the samples for assay.
Proline incorporation is expressed as cpm/ug protein. In order to compare inter-assay results, the incorporation is expressed as percentage reduction of TGF stimulated proline incorporation, where TGF alone gives 0% reduction and the zero control gives 100% reduction.

[3] = Rattus norvegicus, Mesangial cell, @ 30 μM, 5 ng/mL TGF-β1, 44 h, read-out: Mesangial Cell Assay TGF-β % reduction of TGF-β stimulation_proline inc.
[4] = Rattus norvegicus, Mesangial cell, 5 ng/mL TGF-β1, 44 h, read-out: Mesangial Cell Assay TGF-β % reduction of TGF-β stimulation_proline inc.
[5] = Rattus norvegicus, Mesangial cell, @ 10 μM, 5 ng/mL TGF-β1, 44 h, read-out: Mesangial Cell Assay TGF-β % reduction of TGF-β stimulation_proline inc.

Structure (SMILES)	inhibition at 30 µM (rat mesangial cell line [2]; [3]) [%]	Collagen synthesis (rat mesangial cell line [2])	melting point [°C]	inhibition at 10 µM (rat mesangial cell line [2]; [5]) [%]	further results
COc1ccc(/C=C/C(=O)Nc2ccccc2C(=O)O)cc1OC [Analogue 1, (E)-2-[[3-(3,4-Dimethoxyphenyl)-1-oxo-2-propenyl]amino]benzoic acid]	20 to 50	=T			Effect on mesangial cell appearance (rat mesangial cell line [1]; @ 100 μM): stress @; inhibition at 100 µM (rat mesangial cell line [2]; [4]): 50 to 70%
O=C(/C=C/c1ccccc1)Nc1ccccc1C(=O)O [Analogue 2, (E)-2-[(1-Oxo-3-phenyl-2-propenyl)amino]benzoic acid]		<<T	188 to 189		
COc1ccc(/C=C/C(=O)Nc2ccccc2C(=O)O)cc1 [Analogue 3, (E)-2-[[3-(4-Methoxyphenyl)-1-oxo-2-propenyl]amino]benzoic acid]		<<T			
COc1cccc(/C=C/C(=O)Nc2ccccc2C(=O)O)c1 [Analogue 4, (E)-2-[[3-(3-Methoxyphenyl)-1-oxo-2-propenyl]amino]benzoic acid]		<<T	183 to 184		
O=C(/C=C/c1ccc(O)c(O)c1)Nc1ccccc1C(=O)O [Analogue 5, (E)-2-[[3-(3,4-Dihydroxyphenyl)-1-oxo-2-propenyl]amino]benzoic acid]		May be toxic	204 to 206		Effect on mesangial cell appearance (rat mesangial cell line [1]; no concentration stated): Cells looking
COc1cc(/C=C/C(=O)Nc2ccccc2C(=O)O)ccc1O [Analogue 6, (E)-2-[[3-(4-Hydroxy-3-methoxyphenyl)-1-oxo-2-propenyl]amino]benzoic acid]		<=T	207.5 to 208.5	20	inhibition at 50 µM (rat mesangial cell line [2]; [4]): 45%
COc1ccc(/C=C/C(=O)Nc2ccccc2C(=O)O)cc1O [Analogue 7, (E)-2-[[3-(3-Hydroxy-4-methoxyphenyl)-1-oxo-2-propenyl]amino]benzoic acid]		> or =T	215 to 216	~50	Effect on mesangial cell appearance (rat mesangial cell line [1]; no concentration stated): stressed; inhibition at 50 µM (rat mesangial cell line [2]; [4]): 80%
COc1ccc(/C=C/C(=O)Nc2cc3ccccc3cc2C(=O)O)cc1OC [Analogue 8, (E)-3-[[3-(3,4-Dimethoxyphenyl)-1-oxo-2-propenyl]amino]-2-naphthoic acid]		Toxic	212 to 213		Effect on mesangial cell appearance (rat mesangial cell line [1]; no concentration stated): Heavily
COc1ccc(/C=C/C(=O)Nc2cc(OC)c(OC)cc2C(=O)O)cc1OC [Analogue 9, (E)-2-[[3-(3,4-Dimethoxyphenyl)-1-oxo-2-propenyl]amino]-4,5-dimethoxybenzoic acid]		<<T	236 to 239		
COc1ccc(CCC(=O)Nc2ccccc2C(=O)O)cc1OC [Analogue 10, 2-[[3-(3,4-Dimethoxyphenyl)-1-oxopropyl]amino]benzoic acid]		<<T	137		
COc1ccc(/C=C/C(=O)Nc2ccccc2C(N)=O)cc1OC [Analogue 12, (E)-2-[[3-(3,4-Dimethoxyphenyl)-1-oxo-2-propenyl]amino]benzamide]	20	<FT11		~13	Effect on mesangial cell appearance (rat mesangial cell line [1]; @ 100 μM): sparse @; inhibition at 100 µM (rat mesangial cell line [2]; [4]): 36%
COc1ccc(/C=C/C(=O)Nc2ccccc2)cc1OC [Analogue 13, (E)-[3-(3,4-Dimethoxyphenyl)-1-oxo-2-propenyl]aminobenzene]	~20	<FT11			Effect on mesangial cell appearance (rat mesangial cell line [1]; @ 100 μM): sparse @; inhibition at 100 µM (rat mesangial cell line [2]; [4]): ~55%
COc1ccc(/C=C/C(=O)Nc2ccc(C(=O)O)cc2)cc1OC [Analogue 14, (E)-4-[[3-(3,4-Dimethoxyphenyl)-1-oxo-2-propenyl]amino]benzoic acid]		<FT11			inhibition at 100 µM (rat mesangial cell line [2]; [4]): ~30%
C#CCNC(=O)c1ccccc1NC(=O)/C=C/c1ccc(OC)c(OC)c1 [Analogue 15, (E)-2-[[3-(3,4-Dimethoxyphenyl)-1-oxo-2-propenyl]amino]-N-propargylbenzamide]	36	<FT11		~24	Effect on mesangial cell appearance (rat mesangial cell line [1]; @ 30 μM): sparse @ 30; Effect on mesangial cell appearance (rat mesangial cell line [1]; @ 100 μM): sparse @ 30; inhibition at 100 µM (rat mesangial cell line [2]; [4]): 75%
CCC#CCOc1cc(/C=C/C(=O)Nc2ccccc2C(=O)O)ccc1OC [Analogue 19]		>FT11			Mesangial Cell Assay TGF-β % reduction of TGF-β stimulation_proline inc. (rat mesangial cell line [2]; @ 10 μM, 5 ng/mL TGF-β1, 44 h): ~80% @ 10; Mesangial Cell Assay TGF-β % reduction of TGF-β stimulation_proline inc. (rat mesangial cell line [2]; @ 30 μM, 5 ng/mL TGF-β1, 44 h): 100% @ 30
COc1cc(/C=C/C(=O)Nc2ccccc2C(=O)O)ccc1OCc1cn(CC(=O)Nc2ccccc2)nn1 [Analogue 20, (E)-2-[[3-(3-Methoxy-4-((1-(2-oxo-2-(phenylamino)ethyl)-1H-1,2,3-triazol-4-yl)methoxy)phenyl)-1-oxo-2-propenyl]amino]benzoic acid]	50	=FT11		30	Effect on mesangial cell appearance (rat mesangial cell line [1]; @ 100 μM): dead; inhibition at 100 µM (rat mesangial cell line [2]; [4]): 90%
CC#CCOc1ccc(/C=C/C(=O)Nc2ccccc2C(=O)O)cc1OC [Analogue 22, (E)-2-[[3-(4-(But-2-ynyloxy)-3-methoxyphenyl)-1-oxo-2-propenyl]amino]benzoic acid]	~70	=FT11		56	Effect on mesangial cell appearance (rat mesangial cell line [1]; @ 100 μM): dead; inhibition at 3 µM (rat mesangial cell line [2]; Rattus norvegicus, Mesangial cell, @ 3 μM, 5 ng/mL TGF-β1, 44 h, read-out: Mesangial Cell Assay TGF-β % reduction of TGF-β stimulation_proline inc.): ~37%
COc1ccc(/C=C/C(=O)Nc2ccccc2C(=O)NCc2cn(CC(=O)Nc3ccccc3)nn2)cc1OC [Analogue 32, (E)-2-(3-(3,4-Dimethoxyphenyl)acrylamido)-N-((1-(2-oxo-2-(phenylamino)ethyl)-1H-1,2,3-triazol-4-yl)methyl)benzamide]	62	Toxic		~26	Effect on mesangial cell appearance (rat mesangial cell line [1]; no concentration stated): Dead
COc1cc(/C=C/C(=O)Nc2ccccc2C(=O)O)ccc1OCc1ccccc1 [Analogue 43, (E)-2-[[3-(4-Benzyloxy-3-methoxyphenyl)-1-oxo-2-propenyl]amino]benzoic acid]	70			48	Effect on mesangial cell appearance (rat mesangial cell line [1]; @ 30 μM): Sick @; Effect on mesangial cell appearance (rat mesangial cell line [1]; @ 100 μM): Sick @
COc1cc(/C=C/C(=O)Nc2ccccc2C(=O)O)ccc1OCc1ccc2ccccc2c1 [Analogue 44, (E)-2-[[3-(3-Methoxy-4-(naphth-2-ylmethoxy)phenyl)-1-oxo-2-propenyl]amino]benzoic acid]		Toxic			Effect on mesangial cell appearance (rat mesangial cell line [1]; @ all concentrations): Cells damaged @
COc1ccc(/C=C/C(=O)Nc2ccccc2C(=O)O)cn1 [Analogue 46, (E)-2-[[3-(6-Methoxypyridin-3-yl)-1-oxo-2-propenyl]amino]benzoic acid]		<<FT11	209 to 211		
COc1cc(/C=C/C(=O)Nc2ccccc2C(=O)O)ccc1OCC(=O)C12CC3CC(CC(C3)C1)C2 [Analogue 47]			112 to 114		
COc1cc(/C=C/C(=O)Nc2ccccc2C(=O)O)ccc1OCCN1CCOCC1 [Analogue 48, (E)-2-[[3-(3-Methoxy-4-(2-morpholinoethoxy)phenyl)-1-oxo-2-propenyl]amino]benzoic acid]			195 to 201		
COc1cc(/C=C/C(=O)Nc2ccccc2C(=O)O)ccc1OCc1cccnc1 [Analogue 49, (E)-2-[[3-(3-Methoxy-4-(pyridin-3-ylmethoxy)phenyl)-1-oxo-2-propenyl]amino]benzoic acid]			245 to 251		
COc1ccc(/C=C/C(=O)Nc2ccccc2C(=O)O)cc1OCc1c(C)noc1C [Analogue 50, (E)-2-[[3-((3-(3,5-Dimethylisoxazol-4-yl)methoxy)-4-methoxyphenyl)-1-oxo-2-propenyl]amino]benzoic acid]			227 to 229		
CCN(CC)Cc1cc(/C=C/C(=O)Nc2ccccc2C(=O)O)ccc1OC [Analogue 51, (E)-2-[[3-(3-((Diethylamino)methyl)-4-methoxyphenyl)-1-oxo-2-propenyl]amino]benzoic acid]			202 to 205		
